For series [1], the target named is T1, CDK9/cyclin T1 (Homo sapiens, UniProt P50750). Kind of series: Inhibition of human recombinant CDK9/cyclin T expressed in baculovirus infected Sf9 insect cells using pRB (773 to 928 residues) as substrate after 30 mins by [gamma-33P]ATP based scintillation counting analysis.
Series [2] in a line: Inhibition of M-phase starfish oocytes CDK1/cyclin B after 30 mins by [gamma-33P]ATP based scintillation counting analysis. Also on record: species or system Asteroidea.
Series [3] in a line: Inhibition of CDK6/cyclin D (unknown origin). Also on record: species or system Homo sapiens.
Series [4] deals with CDK2/Cyclin A2 (Homo sapiens, UniProt P24941). Kind of series: Inhibition of human full length C-terminal His6-tagged CDK2/N-terminal GST-tagged cyclin A using histone H1 as substrate after 10 mins by [gamma-32P]ATP based binding assay. It is filed as protein-complex assay.
Series [5] concerns the target T1, CDK9/cyclin T1. Briefly: Inhibition of human His6-tagged CDK9/cyclin T1 expressed in baculovirus infected sf9 cells using GST-CTD as substrate after 10 mins in presence of [gamma-32P]ATP by SDS-PAGE analysis.
Series [6] in a line: Cytotoxicity against human HeLa cells assessed as decrease in cell viability after 72 hrs by MTT assay. It is filed as toxicity, cell-based.
For series [7], the target named is Cyclin-dependent kinase 4/cyclin D1 (Homo sapiens, UniProt P11802). Kind of series: Inhibition of recombinant CDK4/cyclin D1 (unknown origin). It is filed as protein-complex assay.
Cyclin-dependent kinase 4/cyclin D1, sequence (P11802 whole entry): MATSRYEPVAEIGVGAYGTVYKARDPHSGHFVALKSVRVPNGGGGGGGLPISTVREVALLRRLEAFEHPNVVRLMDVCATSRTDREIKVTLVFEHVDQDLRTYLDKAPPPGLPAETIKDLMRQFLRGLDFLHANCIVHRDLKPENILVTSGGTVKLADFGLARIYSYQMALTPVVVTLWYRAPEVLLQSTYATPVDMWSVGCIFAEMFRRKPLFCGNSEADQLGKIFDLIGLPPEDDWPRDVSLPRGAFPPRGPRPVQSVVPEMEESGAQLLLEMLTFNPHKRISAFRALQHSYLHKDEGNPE
Cyclin-dependent kinase 4/cyclin D1, sequence (P24385 whole entry, further chain): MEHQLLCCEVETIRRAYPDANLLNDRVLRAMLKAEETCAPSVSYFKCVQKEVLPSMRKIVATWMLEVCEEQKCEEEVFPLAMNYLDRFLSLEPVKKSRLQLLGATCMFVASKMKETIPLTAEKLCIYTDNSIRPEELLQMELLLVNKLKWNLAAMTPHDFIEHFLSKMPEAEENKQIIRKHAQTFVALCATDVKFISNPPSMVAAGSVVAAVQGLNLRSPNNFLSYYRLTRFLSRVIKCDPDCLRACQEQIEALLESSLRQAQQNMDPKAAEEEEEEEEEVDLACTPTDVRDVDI
In series [8] the target is T2, Cyclin-dependent kinase 1/cyclin B1 (Homo sapiens, UniProt P06493). It is filed as protein-complex assay.
T2 sequence (P06493 whole entry): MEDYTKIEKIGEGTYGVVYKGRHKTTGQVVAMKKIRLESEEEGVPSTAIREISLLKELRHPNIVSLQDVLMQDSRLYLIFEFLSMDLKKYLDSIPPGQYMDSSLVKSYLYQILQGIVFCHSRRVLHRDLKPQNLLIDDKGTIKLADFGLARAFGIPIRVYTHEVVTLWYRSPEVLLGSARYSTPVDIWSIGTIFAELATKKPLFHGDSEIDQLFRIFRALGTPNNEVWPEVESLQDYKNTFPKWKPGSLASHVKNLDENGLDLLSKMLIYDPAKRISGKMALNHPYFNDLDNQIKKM
T2 sequence (P14635 whole entry, further chain): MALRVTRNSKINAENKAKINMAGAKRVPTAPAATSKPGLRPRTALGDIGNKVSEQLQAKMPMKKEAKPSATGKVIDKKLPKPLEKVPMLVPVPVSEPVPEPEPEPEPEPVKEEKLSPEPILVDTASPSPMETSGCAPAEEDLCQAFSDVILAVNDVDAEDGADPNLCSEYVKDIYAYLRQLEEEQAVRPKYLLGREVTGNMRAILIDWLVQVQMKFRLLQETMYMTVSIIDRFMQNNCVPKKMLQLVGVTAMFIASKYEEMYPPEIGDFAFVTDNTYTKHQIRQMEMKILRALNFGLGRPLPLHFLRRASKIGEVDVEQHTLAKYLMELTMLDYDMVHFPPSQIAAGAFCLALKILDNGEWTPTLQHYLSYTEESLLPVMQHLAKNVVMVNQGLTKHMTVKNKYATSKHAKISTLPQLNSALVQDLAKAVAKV
Description: Inhibition of CDK1/cyclin B (unknown origin)
Series [9] deals with CDK9/cyclin T1 (Homo sapiens) (UniProt O60563+P50750). Briefly: Inhibition of human CDK9/cyclin T1 by radiometric assay relative to control. Also on record: concentration or dose not given beside the values. It is filed as protein-complex assay. The settings on record: concentration not given here.
Series [10] addresses CDK9/Cyclin K (Homo sapiens) (UniProt P50750+O75909). Kind of series: Inhibition of human CDK9/cyclin K by radiometric assay relative to control. It is filed as protein-complex assay. The arrangement: concentration or dose not given beside the values. The settings on record: concentration not given here.
The target of series [11] is CDK7/Cyclin H/MNAT1 (Homo sapiens, UniProt P50613). Kind of series: Inhibition of recombinant human full length C-terminal His6-tagged CDK7/cyclin H/N-terminal GST-tagged MAT1 expressed in baculovirus infected Sf21 insect cells using cdk7 substrate peptide.
Series [12] addresses Receptor-type tyrosine-protein kinase FLT3 (Homo sapiens, UniProt P36888, D835Y). Kind of series: Inhibition of human recombinant N-terminal GST-tagged FLT3 D835Y mutant expressed in baculovirus infected Sf21 insect cells using abltide as substrate.
The target in series [13] is T3, CDK3/Cyclin E (Homo sapiens, UniProt Q00526). Briefly: Inhibition of recombinant human full length C-terminal His6-tagged CDK3/N-terminal GST-tagged cyclin E expressed in baculovirus infected Sf21 insect cells using Histone H1 as substrate.
T3 sequence (P24864 whole entry): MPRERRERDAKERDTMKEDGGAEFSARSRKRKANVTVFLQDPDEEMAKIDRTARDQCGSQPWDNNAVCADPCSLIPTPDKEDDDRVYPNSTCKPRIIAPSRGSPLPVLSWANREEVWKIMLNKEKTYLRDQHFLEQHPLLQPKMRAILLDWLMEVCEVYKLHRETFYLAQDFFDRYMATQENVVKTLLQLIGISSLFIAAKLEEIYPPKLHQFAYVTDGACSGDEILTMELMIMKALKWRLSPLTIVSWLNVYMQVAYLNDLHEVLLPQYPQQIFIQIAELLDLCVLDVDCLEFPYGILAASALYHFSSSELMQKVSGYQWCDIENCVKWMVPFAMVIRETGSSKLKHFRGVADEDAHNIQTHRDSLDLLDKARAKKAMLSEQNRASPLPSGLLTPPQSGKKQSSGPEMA
T3 sequence (Q00526 whole entry): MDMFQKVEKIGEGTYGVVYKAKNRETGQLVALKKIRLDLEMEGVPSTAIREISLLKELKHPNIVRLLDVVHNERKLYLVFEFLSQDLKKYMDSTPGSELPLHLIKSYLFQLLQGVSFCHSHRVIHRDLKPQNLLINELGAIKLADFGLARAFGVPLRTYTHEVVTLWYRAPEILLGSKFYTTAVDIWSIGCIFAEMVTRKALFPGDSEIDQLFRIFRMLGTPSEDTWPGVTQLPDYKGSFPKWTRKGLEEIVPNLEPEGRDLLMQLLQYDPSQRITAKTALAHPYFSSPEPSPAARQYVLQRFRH
Series [14] deals with Cyclin-dependent kinase 1 (Homo sapiens, UniProt P06493). Kind of series: Inhibition of CDK1 (unknown origin).
Cyclin-dependent kinase 1, sequence (P06493 whole entry): as the sequence (P06493 whole entry) above
Series [15] has as its target Cyclin-dependent kinase 5 (Homo sapiens, UniProt Q00535). Kind of series: Inhibition of human GST-tagged CDK5.
The target of series [16] is T2, Cyclin-dependent kinase 1/cyclin B1. Kind of series: Inhibition of recombinant human CDK1/cyclin B expressed in baculovirus infected Sf9 insect cells after 80 mins in presence of [33P]ATP by microbeta scintillation counting analysis.
Series [17] concerns the target CDK2/Cyclin A1 (Homo sapiens, UniProt P24941). Briefly: Inhibition of recombinant human His/GST-tagged CDK2/Cyclin A expressed in baculovirus infected Sf9 cells using Histone H1 as substrate after 80 mins in presence of [33P]ATP by microbeta scintillation counting analysis.
For series [18], the target named is T4, Cyclin-dependent kinase 5/CDK5 activator 1 (Homo sapiens, UniProt Q00535). Briefly: Inhibition of recombinant human His/GST-tagged CDK5/p35 expressed in baculovirus infected Sf9 insect cells using Rb-CTF as substrate after 80 mins in presence of [33P]ATP by microbeta scintillation counting analysis.
T4 sequence (Q00535 whole entry): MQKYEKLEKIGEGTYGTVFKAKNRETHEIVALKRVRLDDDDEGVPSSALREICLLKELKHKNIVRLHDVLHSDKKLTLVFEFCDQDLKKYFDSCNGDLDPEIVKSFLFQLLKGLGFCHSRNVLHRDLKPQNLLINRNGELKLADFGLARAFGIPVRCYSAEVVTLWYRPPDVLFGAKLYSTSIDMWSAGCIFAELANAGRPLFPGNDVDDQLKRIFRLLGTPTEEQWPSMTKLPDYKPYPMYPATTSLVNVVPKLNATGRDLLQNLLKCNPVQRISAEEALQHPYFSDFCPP
T4 sequence (Q15078 whole entry, further chain): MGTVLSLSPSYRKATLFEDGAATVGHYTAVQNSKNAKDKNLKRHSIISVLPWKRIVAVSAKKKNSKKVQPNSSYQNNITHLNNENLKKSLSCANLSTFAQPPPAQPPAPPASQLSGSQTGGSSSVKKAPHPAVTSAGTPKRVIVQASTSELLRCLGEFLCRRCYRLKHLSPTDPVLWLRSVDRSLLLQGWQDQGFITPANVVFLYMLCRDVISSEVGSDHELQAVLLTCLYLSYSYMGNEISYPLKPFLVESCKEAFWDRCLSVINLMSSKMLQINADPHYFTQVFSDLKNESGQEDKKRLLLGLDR
Series [19] concerns the target T3, CDK3/Cyclin E. Kind of series: Inhibition of recombinant human CDK3/cyclin E expressed in baculovirus infected Sf9 insect cells after 80 mins in presence of [33P]ATP by microbeta scintillation counting analysis.
The target in series [20] is T1, CDK9/cyclin T1. Briefly: Inhibition of CDK9/cyclin T1 (unknown origin) using cdk7tide peptide as substrate. It is filed as protein-complex assay.
Series [21] concerns the target T5, Cyclin-dependent kinase 2/cyclin E1 (Homo sapiens, UniProt P24941). Briefly: Inhibition of human recombinant GST-tagged CDK2/cyclin E expressed in Sf9 insect cells using biotin-Ttds-YISPLKSPYKISEG as substrate preincubated for 15 mins followed by substrate addition measured after 25 mins by TR-FRET assay.
Series [22] deals with CDK6/cyclin D3 (Homo sapiens, UniProt Q00534). Kind of series: Inhibition of CDK6/cyclin D3 (unknown origin). It is filed as protein-complex assay.
The target in series [23] is Cyclin-dependent kinase 7/ cyclin H (Homo sapiens, UniProt P50613). Briefly: Inhibition of CDK7/cyclin H (unknown origin). It counts as protein-complex assay.
For series [24], the target named is T4, Cyclin-dependent kinase 5/CDK5 activator 1. Kind of series: Inhibition of CDK5/p35 (unknown origin). It is filed as protein-complex assay.
In series [25] the target is T3, CDK3/Cyclin E. Briefly: Inhibition of CDK3/cyclin E (unknown origin). It is filed as protein-complex assay.
In series [26] the target is T5, Cyclin-dependent kinase 2/cyclin E1. Kind of series: Inhibition of CDK2/cyclin E (unknown origin). It counts as protein-complex assay.
The target in series [27] is T1, CDK9/cyclin T1. Briefly: Inhibition of recombinant human full length C-terminal His6-tagged CDK9/cyclin T1 expressed in baculovirus infected Sf21 insect cells using 5TAMRA-cdk7tide as substrate after 4.5 hrs by IMAP assay.
The target of series [28] is T5, Cyclin-dependent kinase 2/cyclin E1. Kind of series: Inhibition of recombinant human His6-tagged CDK2/cyclin E expressed in baculovirus infected sf9 cells using histone H1 susbtrate in presence of [gamma32P]ATP after 10 mins by scintillation counting method.
Series [29] addresses Tyrosine-protein kinase JAK2 (Homo sapiens, UniProt O60674). Kind of series: Inhibition of human recombinant GST-tagged JAK2 expressed in baculovirus expression system.

Molecules are shown by their SMILES. pIC50, pKi: −log10 of the molar value.

Data on 17 molecules can be found in ChEMBL document CHEMBL3856187, “Cyclin Dependent Kinase 9 Inhibitors for Cancer Therapy” (J Med Chem, 2016).

T1 sequence (O60563 whole entry, the tested form may be a part): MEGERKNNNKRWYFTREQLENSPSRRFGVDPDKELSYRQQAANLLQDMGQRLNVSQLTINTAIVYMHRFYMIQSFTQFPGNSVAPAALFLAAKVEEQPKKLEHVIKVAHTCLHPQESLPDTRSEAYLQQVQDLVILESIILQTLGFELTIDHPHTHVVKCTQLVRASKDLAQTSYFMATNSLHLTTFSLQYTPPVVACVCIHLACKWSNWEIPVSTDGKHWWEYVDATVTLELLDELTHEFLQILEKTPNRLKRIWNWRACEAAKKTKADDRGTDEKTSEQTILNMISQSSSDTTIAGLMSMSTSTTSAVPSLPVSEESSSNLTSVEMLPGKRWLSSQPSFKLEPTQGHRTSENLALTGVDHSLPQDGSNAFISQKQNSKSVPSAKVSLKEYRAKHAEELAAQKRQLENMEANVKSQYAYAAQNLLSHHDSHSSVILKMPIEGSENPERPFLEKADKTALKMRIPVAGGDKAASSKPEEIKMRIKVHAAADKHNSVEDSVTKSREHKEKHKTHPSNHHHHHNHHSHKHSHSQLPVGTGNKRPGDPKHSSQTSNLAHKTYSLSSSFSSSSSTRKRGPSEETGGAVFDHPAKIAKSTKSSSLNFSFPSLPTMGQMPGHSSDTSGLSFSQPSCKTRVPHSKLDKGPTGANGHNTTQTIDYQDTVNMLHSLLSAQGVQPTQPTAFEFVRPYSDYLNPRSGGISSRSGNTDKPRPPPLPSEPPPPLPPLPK
T1 sequence (P50750 whole entry, the tested form may be a part): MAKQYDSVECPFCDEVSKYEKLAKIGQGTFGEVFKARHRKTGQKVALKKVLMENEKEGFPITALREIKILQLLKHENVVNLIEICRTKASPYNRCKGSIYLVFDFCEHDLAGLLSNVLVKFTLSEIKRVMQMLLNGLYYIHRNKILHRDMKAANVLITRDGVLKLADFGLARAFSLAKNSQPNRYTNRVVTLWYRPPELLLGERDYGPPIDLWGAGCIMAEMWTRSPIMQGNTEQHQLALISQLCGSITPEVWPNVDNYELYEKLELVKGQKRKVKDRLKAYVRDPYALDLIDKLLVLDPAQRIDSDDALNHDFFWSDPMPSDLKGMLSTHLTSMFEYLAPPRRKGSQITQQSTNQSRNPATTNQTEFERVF
Cyclin-dependent kinase 5, sequence (Q00535 whole entry): as the sequence (Q00535 whole entry) above

With `CCCOc1ccnc2[nH]cc(-c3ccnc(N)n3)c12` [MERIOLIN 5], the pIC50 in series [1] was 8.22; in [2], 8.15.

In turn, `CC(C)(C)c1cnc(CSc2cnc(NC(=O)C3CCNCC3)s2)o1` [BMS-387032] showed a negative-log IC50 (pIC50) in [3] of less than 6.00.

Regarding `C=Cc1ccc(-c2cc(=O)c3c(O)cc(O)c([C@H]4CCN(C)C[C@H]4O)c3o2)cc1`, the figures for the pIC50 in series [4] and in [5] were 6.69 and 8.02, respectively. The CC50 at 72 h in [6] was determined as 219 nM.

Consider `CN1CC[C@H](c2c(O)cc(O)c3c(=O)cc(-c4ccc(C(F)(F)F)cc4)oc23)[C@H](O)C1`, for which the values for the pIC50 in series [4] and in series [5] were 6.52 and 7.72, respectively. The CC50 at 72 h in [6] came out at 1200 nM.

For the molecule `CN1CC[C@@H](c2c(O)cc(O)c3c(=O)cc(-c4ccc(C(F)(F)F)cc4Cl)oc23)[C@@H]1CO` [VORUCICLIB], the pIC50 in series [7] was 7.05; in [8] it was 7.60.

With `CN1CC[C@H](c2c(O)cc(O)c3c(=O)cc(-c4ccc(Br)cc4)oc23)[C@H](O)C1`, the negative-log IC50 (pIC50) in series [4] is 6.65; in series [5] it was 8.26. In addition, in series [6], the CC50 at 72 h worked out at 280 nM.

Take `Nc1nc(Nc2ccc(S(N)(=O)=O)cc2)nn1C(=S)Nc1c(F)cccc1F`: the inhibition in series [9] and in [10] was more than 75% throughout.

On to `CN1C/C=C/CCOc2cccc(c2)-c2ccnc(n2)Nc2cccc(c2)C1` [ZOTIRACICLIB], for which the negative-log IC50 (pIC50) in series [11] is 7.82 to 8.52; in series [12], 7.68; in series [13], 7.82 to 8.52; in series [14], 7.82 to 8.52; in [15] it was 7.82 to 8.52.

With `CN1CC[C@H](c2c(O)cc(O)c3c(=O)cc(-c4ccc(F)cc4)oc23)[C@H](O)C1`, the pIC50 in [4] is 6.89; in series [5], 8.68. Besides, in series [6], the CC50 at 72 h was 200 nM.

As for `COc1cc(F)ccc1-c1ccnc(NC(=O)[C@H]2CCC[C@@H](NC(C)=O)C2)c1`, the negative logarithm of the IC50 (pIC50) in series [16], in series [17], in series [18] and in [19] was 5.97 to 7.03 each time.

Take `O=C(NC1CCNCC1)c1n[nH]cc1NC(=O)c1c(Cl)cccc1Cl` [AT-7519]: the pKi in series [3] was 6.18.

For `COc1cc(F)ccc1-c1ccnc(NC(=O)[C@@H]2CC[C@H](NC(C)=O)C2)c1`, the pIC50 in [16] is 5.73 to 6.04; in [17], 5.73 to 6.04; in [18], 5.73 to 6.04; in series [20], 8.00; in series [19] it was 5.73 to 6.04.

Take `COc1cc(F)ccc1-c1ncnc(Nc2cccc(CS(=O)(=NC#N)C3CC3)c2)n1` (configuration not stated): the pIC50 in series [21] is 6.52.

For `COCCN1CCN(Cc2ccc(-c3n[nH]c4c3C(=O)c3c(NC(=O)NN5CCOCC5)cccc3-4)cc2)CC1` [RGB-286638], the pIC50 in [22], in series [23], in series [24], in [25], in series [7] and in series [26] was 7.26 to 8.70 throughout. For the same molecule, the pIC50 in [8] was 7.26 to 8.70.

Take `CN[C@H]1C[C@@H]2O[C@@](C)(C3c4ccccc4-c4c5c(c6c(c43)C2c2ccccc2-6)C(=O)NC5=O)[C@H]1OC` (some centres not stated): the inhibition in series [9] and in [10] was more than 75% throughout.

For the molecule `Clc1cnc(NC2CCCC2)cc1-c1cnc(N2CCOCC2)c(NCC2CCOCC2)c1`, in series [27], the negative logarithm of the IC50 (pIC50) was 5.46.

`O=C1CC/C=C\COc2cccc(c2)-c2ccnc(n2)Nc2cccc(c2)N1`: the pIC50 was 5.59 in [28] and 5.77 in series [29].
